SMILES strings stand for the structures.

Consider one compound from patent US5674730A, “Eukaryotic cells comprising a DNA sequence encoding a bacterial-viral chimeric transactivator protein” (priority 1993, dated 1997).

What all share (type): cell-based
Test [1] concerns LAP348 lac activator protein: E. coli lacI 5'N1 (SV40 nuclear localization signal) with HSV VP16 amino acids 369-488 inserted after lacI amino acid 348. The test can be described thus: Transient cotransfection CAT assay with or without IPTG in the growth medium (FIG. 6). To be noted: 10 mM IPTG in growth medium; HeLa cells cotransfected with pL1-2CAT and pHCMVLAP348. The procedure:
FIG. 6 Inhibition of LAP activity by IPTG. HeLa cells were plated out two days before transfection in normal media or media containing 10 mM IPTG. Transfections contained 2 μg of either pSV2CAT or pL1-2CAT alone or with 1 μg of pHCMVLAP348. Cells transfected in IPTG were fed with media containing 10 mM IPTG 16 hours after transfection. CAT assays were preformed as described in the text. The relative activities (RA) of each extract normalized to that produced by pSV2CAT are shown below the figure.
(§1) Cells were transfected by the calcium phosphate precipitation method as previously described (Wigler et al., 1979, Proc. Natl. Acad. Sci. USA 76:1373-1376). For transient expression assays, 50-70% confluent […] of cells were incubated overnight after addition to the media of a 1 ml precipitate containing 2 μg of reporter and 1 μg of effector plasmids and carrier DNA (high molecular weight calf thymus DNA) for a total of 25 μg of DNA. The media and precipitate were removed and replaced with fresh media the next morning.
Cells were harvested 44-48 hours after transfection and CAT assays performed essentially as described (Gorman et al., 1982, Mol. Cell Biol. 2:1044-1051). Equal amounts (30-200 μg) of protein were used in each experiment. CAT activity was quantitated by thin layer chromatography and liquid scintillation counting of spots. […]

In test [2] the test system is LAP348 lac activator protein: E. coli lacI 5'N1 with HSV VP16 amino acids 369-488 inserted after lacI amino acid 348, stably expressed. The test can be described thus: CAT assay in cell line stably expressing LAP348, with or without IPTG (FIG. 8). The settings on record: IPTG (10 mM per FIG. 8 legend) added to medium two days before transfection; LAPneo2b cells. The procedure: FIG. 8 Inhibition of LAP348 activity of L3 cells by IPTG. Either LTK or L3, or L3 cells grown in the presence of 10 mM IPTG (L3+i) for 48 hours before transfection, were transfected with either pSV2cat or pL1-2cat as indicated. The relative activity of the extracts normalized to that produced by SV2cat in Ltk- cells are shown below.
as §1
Cells were harvested 44-48 hours after transfection and CAT assays performed essentially as described (Gorman et al., 1982, Mol. Cell Biol. 2:1044-1051). Equal amounts (30-200 μg) of protein were used in each experiment. CAT activity was quantitated by thin layer chromatography and liquid scintillation counting of spots. Extracts that converted greater than 80% of the chloramphenicol in an assay were diluted appropriately to ensure linearity of the assay. […]

In test [3] the test system is LAP267 temperature-sensitive lac activator protein: E. coli lacI 5'N1 with HSV VP16 segment inserted after lacI amino acid 267. The test can be described thus: CAT expression from pL14CAT as a function of IPTG concentration at 39.5° C. (FIG. 9). To be noted: 39.5° C. (non-permissive temperature); HeLa cells cotransfected with LAP267 and pL14CAT. The procedure: FIG. 9 Reverse-regulatory effect of IPTG on transactivator activity of LAP267 at 39.5° C.
LAP267 was constructed as described for LAP348 in Section 6.1.1., supra, except that the VP16 segment was inserted at an EcoRV site after amino acid 267 in the lacI coding region (FIG. 1A).
HeLa cells were cotransfected with plasmids encoding the LAP267 or LAP348 activator protein and pL14CAT, encoding CAT reporter gene. […] This property enables the expression of genes controlled by LAP267 to be induced at 39.5° C. by addition of IPTG to the culture medium.

As for `CC(C)S[C@@H]1O[C@H](CO)[C@H](O)[C@H](O)[C@H]1O` [IPTG, isopropyl β-D-thiogalactoside], the “reduction of the level of activation of pL1-2CAT by LAP348” value in test [1] is “greater than 10 fold”. In addition, the “reduction of expression of pL1-2CAT in LAP348-expressing cell line” value in test [2] is recorded as “greater than 30 fold”. Moreover, in test [3], the “effect of IPTG on transactivator activity of LAP267” value was “reverse regulator”.
